# Assay results from article PMC9823356, “Inhibition of Cancer Cell Proliferation and Bacterial Growth by Silver(I) Complexes Bearing a CH3-Substituted Thiadiazole-Based Thioamide” (Molecules, 2023).
# Experiments:
# [1] = tested on: calf-thymus (CT) DNA; experiment: DNA viscosity measurements; assay type: binding
# Method: All measurements were performed at room temperature. The obtained data are presented as (η/η0)^1/3 versus r where η is the viscosity of DNA in the presence of the studied compound, η0 is the viscosity of DNA alone in buffer solution and r = [complex]/[DNA]. DNA-length (L/L0), according to the equation L/L0 = (η/η0)^1/3. […] In the particular case of intercalation, an increase in the separation distance of the DNA-base pairs can be induced in order to host the inserting compound resulting in an increase of the relative DNA-viscosity. On the other hand, when a compound binds to DNA-grooves via non-classic intercalation (i.e., electrostatic interaction or external groove-binding) the DNA-viscosity may show a slight decrease or remain unchanged, because of a bend of DNA double helix which leads to shortening of DNA length.
# [2] = tested on: calf-thymus (CT) DNA; experiment: CT DNA interaction by UV-visible spectroscopy; conditions: upon addition of CT DNA
# Method: The UV-visible spectra of CT DNA solution (1.5 × 10^−4 M) were recorded in the presence of each compound at diverse [compound]/[DNA] mixing ratios (r).
# [3] = molecular target: T1, BSA (bovine serum albumin) (Bos taurus, UniProt P02769); experiment: Serum albumin tryptophan fluorescence quenching; assay type: binding
# T1 construct: purchased
# T1 sequence (P02769 25-607): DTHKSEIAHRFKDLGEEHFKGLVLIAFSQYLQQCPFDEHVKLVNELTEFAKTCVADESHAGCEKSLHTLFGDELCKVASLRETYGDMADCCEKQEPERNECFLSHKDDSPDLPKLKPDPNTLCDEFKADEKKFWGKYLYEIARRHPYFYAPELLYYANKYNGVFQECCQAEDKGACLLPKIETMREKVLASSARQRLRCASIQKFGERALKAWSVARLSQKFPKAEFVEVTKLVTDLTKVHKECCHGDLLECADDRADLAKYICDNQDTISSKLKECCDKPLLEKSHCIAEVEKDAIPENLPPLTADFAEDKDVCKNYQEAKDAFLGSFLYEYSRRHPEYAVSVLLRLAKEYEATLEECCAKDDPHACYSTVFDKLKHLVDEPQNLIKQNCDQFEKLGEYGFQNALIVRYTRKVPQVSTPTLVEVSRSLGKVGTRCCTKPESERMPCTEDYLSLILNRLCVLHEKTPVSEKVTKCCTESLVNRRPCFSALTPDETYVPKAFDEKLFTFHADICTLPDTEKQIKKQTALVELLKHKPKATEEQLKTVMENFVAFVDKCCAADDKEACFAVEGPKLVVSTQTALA
# Method: (§1) The serum albumin (SA) binding study was performed by tryptophan fluorescence quenching experiments using BSA (3 μM) or HSA (3 μM) in buffer (containing 1 mM trisodium citrate and 150 mM NaCl at pH 7.0).
# (§2) The Stern-Volmer and Scatchard graphs are used in order to study the interaction of a quencher with serum albumins. According to Stern-Volmer quenching equation (Equation (2)), where Io = the initial tryptophan fluorescence intensity of SA, I = the tryptophan fluorescence intensity of SA after the addition of the quencher, kq = the quenching constant, KSV = the Stern-Volmer constant, τo = the average lifetime of SA without the quencher, [Q] = the concentration of the quencher. KSV (M^–1) can be obtained by the slope of the diagram Io/I versus [Q], and subsequently the quenching constant (kq, M^–1s^–1) is calculated from Equation (3) with τ0 = 10^–8 s as fluorescence lifetime of tryptophan in SA.
# (§3) From the Scatchard equation (5) ΔΙ/Ιο/Q=nK−kΔΙ/Ιο where, n is the number of binding sites per albumin and K is the SA-binding constant, K (in M^–1) is calculated from the slope in plots ΔΙ/Ιο/Q versus ΔΙ/Ιο and n is given by the ratio of y intercept to the slope.
# [4] = molecular target: T2, HSA (human serum albumin) (Homo sapiens, UniProt P02768); experiment: Serum albumin tryptophan fluorescence quenching; assay type: binding
# T2 construct: purchased
# T2 sequence (P02768 25-609): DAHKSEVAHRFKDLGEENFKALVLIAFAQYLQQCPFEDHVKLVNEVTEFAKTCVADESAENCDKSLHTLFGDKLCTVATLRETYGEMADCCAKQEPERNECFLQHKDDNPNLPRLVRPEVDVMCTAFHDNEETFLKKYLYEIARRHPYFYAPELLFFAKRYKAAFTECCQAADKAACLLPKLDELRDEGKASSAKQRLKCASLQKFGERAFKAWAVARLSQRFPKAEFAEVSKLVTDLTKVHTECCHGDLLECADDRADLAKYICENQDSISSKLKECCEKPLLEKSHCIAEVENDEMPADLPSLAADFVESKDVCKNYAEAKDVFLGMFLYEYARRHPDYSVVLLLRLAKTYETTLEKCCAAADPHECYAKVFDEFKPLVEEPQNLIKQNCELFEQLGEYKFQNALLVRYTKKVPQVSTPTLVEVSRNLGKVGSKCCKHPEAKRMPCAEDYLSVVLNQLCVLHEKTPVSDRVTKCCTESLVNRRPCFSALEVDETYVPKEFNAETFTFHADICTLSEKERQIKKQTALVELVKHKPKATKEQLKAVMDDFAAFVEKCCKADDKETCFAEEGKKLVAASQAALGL
# Method: as §1, §2, §3
substance,measurement,setting,value
[Ag(mtdztH)(dppe)(NO3)]n [Compound 4],relative DNA viscosity change,"[1]; higher concentrations, r > 0.15",moderate increase
same,relative DNA viscosity change,"[1]; low concentrations, up to r = 0.15",remained almost unchanged
same,percentage of hyper-/hypochromism ΔA/Aο,"[2]; DMSO solution, + hyperchromism, – hypochromism",–13%
same,hypochromism (intensity decrease) of absorption band at 272 nm,[2],up to 13%
same,decrease in BSA fluorescence,"[3]; λex 295 nm, λem 350 nm",44.5%
same,emission-quenching constant kq,[3]; τ0 = 10^–8 s,7.15 (±0.40) × 10^12 M^−1s^−1
same,binding constant K,[4]; Scatchard equation,7.21 (±0.53) × 10^4 M^−1
same,HSA emission quenching,"[4]; λex 295 nm, λem 338 nm",23%
same,emission-quenching constant kq,[4]; τ0 = 10^–8 s,5.11 (±0.37) × 10^11 M^−1s^−1
